Data from ChEMBL document CHEMBL1153372, “A selective matrix metalloprotease 12 inhibitor for potential treatment of chronic obstructive pulmonary disease (COPD): discovery of (S)-2-(8-(methoxycarbonylamino)dibenzo[b,d]furan-3-sulfonamido)-3-methylbutanoic acid (MMP408)” (J Med Chem, 2009).

What was measured:
[1] = Cmax in C57BL/6 mouse at 30 mg/kg, po; assay type: ADME, organism-based; design: dose 30 mg/kg, route oral; conditions: in vivo
[2] = AUC in C57BL/6 mouse at 30 mg/kg, po; assay type: ADME, organism-based; design: dose 30 mg/kg, route oral; conditions: plasma
[3] = Oral bioavailability in C57BL/6 mouse at 30 mg/kg; assay type: ADME, organism-based; conditions: in vivo
[4] = molecular target: Stromelysin-1 (Homo sapiens, UniProt P08254); experiment: Inhibition of human MMP3
[5] = molecular target: T1, Matrilysin (Homo sapiens, UniProt P09237); experiment: Inhibition of human MMP7
T1 sequence (P09237 whole entry): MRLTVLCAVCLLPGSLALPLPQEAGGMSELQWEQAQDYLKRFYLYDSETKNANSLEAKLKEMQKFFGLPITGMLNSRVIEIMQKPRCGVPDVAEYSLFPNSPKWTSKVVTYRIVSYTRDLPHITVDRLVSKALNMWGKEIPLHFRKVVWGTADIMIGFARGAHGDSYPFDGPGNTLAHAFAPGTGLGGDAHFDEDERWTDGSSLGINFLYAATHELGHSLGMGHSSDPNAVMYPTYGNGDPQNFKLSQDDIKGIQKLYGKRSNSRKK

[6] = molecular target: Matrix metalloproteinase-9 (Homo sapiens, UniProt P14780); experiment: Inhibition of human MMP9
[7] = molecular target: T2, A disintegrin and metalloproteinase with thrombospondin motifs 4 (Homo sapiens, UniProt O75173); experiment: Inhibition of human Aggrecanase-1
T2 sequence (O75173 whole entry): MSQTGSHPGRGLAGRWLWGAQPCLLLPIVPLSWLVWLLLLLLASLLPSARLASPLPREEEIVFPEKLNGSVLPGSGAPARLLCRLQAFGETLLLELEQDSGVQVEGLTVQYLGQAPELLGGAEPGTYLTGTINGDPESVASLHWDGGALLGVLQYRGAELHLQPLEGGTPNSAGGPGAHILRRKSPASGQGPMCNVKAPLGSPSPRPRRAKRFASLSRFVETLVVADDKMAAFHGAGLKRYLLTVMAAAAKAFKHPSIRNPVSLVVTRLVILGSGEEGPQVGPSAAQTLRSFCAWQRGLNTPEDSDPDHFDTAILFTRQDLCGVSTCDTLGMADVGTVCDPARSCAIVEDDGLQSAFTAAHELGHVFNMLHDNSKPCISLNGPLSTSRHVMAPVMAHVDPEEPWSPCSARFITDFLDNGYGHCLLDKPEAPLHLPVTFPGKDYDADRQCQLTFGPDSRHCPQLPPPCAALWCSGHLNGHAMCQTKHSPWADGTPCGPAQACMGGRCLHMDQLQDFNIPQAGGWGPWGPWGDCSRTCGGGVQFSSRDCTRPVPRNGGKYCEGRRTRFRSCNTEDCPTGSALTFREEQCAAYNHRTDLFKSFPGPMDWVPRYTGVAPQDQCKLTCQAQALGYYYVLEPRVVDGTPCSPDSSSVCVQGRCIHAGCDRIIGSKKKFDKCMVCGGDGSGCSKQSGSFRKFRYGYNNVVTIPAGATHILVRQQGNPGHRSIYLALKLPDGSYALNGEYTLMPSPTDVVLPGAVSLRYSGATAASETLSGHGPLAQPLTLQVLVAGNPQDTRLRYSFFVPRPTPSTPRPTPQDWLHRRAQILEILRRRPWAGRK

[8] = molecular target: T3, A disintegrin and metalloproteinase with thrombospondin motifs 5 (Homo sapiens, UniProt Q9UNA0); experiment: Inhibition of human Aggrecanase-2
T3 sequence (Q9UNA0 whole entry): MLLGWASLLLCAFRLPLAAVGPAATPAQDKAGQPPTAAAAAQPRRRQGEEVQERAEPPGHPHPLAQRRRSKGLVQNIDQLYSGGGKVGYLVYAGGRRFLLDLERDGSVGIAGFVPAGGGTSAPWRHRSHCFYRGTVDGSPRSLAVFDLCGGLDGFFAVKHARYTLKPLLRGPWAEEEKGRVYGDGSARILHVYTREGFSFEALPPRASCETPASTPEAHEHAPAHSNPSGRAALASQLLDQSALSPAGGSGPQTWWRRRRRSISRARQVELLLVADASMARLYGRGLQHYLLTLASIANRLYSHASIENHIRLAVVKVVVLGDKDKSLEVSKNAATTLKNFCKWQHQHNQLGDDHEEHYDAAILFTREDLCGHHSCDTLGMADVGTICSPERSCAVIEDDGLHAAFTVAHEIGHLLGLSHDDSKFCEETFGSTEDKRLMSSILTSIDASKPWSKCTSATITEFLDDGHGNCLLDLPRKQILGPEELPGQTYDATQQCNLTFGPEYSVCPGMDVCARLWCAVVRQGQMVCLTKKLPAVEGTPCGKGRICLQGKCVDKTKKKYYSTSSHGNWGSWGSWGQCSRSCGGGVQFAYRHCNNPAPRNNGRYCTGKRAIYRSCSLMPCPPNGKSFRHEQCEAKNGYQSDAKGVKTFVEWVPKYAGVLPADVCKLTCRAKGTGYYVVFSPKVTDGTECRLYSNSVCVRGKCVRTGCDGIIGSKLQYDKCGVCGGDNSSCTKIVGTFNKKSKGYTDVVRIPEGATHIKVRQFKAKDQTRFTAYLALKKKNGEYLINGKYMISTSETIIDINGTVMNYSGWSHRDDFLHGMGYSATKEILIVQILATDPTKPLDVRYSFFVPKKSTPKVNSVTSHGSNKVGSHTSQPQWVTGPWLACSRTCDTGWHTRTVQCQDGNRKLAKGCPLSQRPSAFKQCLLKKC

[9] = molecular target: Matrix metalloproteinase-14 (Homo sapiens, UniProt P50281); experiment: Inhibition of human MMP14
[10] = Metabolic stability in mouse liver microsomes; assay type: ADME, Microsome
[11] = Metabolic stability in rat liver microsomes; assay type: ADME, Microsome
[12] = Metabolic stability in dog liver microsomes; assay type: ADME, Canis lupus familiaris, Microsome
[13] = Metabolic stability in monkey liver microsomes; assay type: ADME, Macaca mulatta, Microsome; conditions: rhesus monkey
[14] = molecular target: Voltage-gated inwardly rectifying potassium channel KCNH2 (Homo sapiens, UniProt Q12809); experiment: Inhibition of human ERG channel
[15] = Metabolic stability in human liver microsomes; assay type: ADME, Microsome
[16] = tested on: Mus musculus; experiment: Inhibition of human recombinant MMP-12-induced lung inflammation in C57BL/6 mouse chronic obstructive pulmonary disease model assessed as inhibition of bronchoalveolar lavage fluid macrophage level at 30 mg/kg, po qd; assay type: functional; conditions: C57BL/6, Lung
[17] = tested on: Mus musculus; experiment: Inhibition of human recombinant MMP-12-induced lung inflammation in po dosed C57BL/6 mouse chronic obstructive pulmonary disease model assessed as inhibition of lung inflammation dosed twice daily; assay type: functional; conditions: C57BL/6, po, read-out: MED
[18] = tested on: Mus musculus; experiment: Inhibition of human recombinant MMP-12-induced lung inflammation in C57BL/6 mouse chronic obstructive pulmonary disease model assessed as inhibition of bronchoalveolar lavage fluid inflammation at 30 mg/kg, po qd; assay type: functional; conditions: C57BL/6, Lung
[19] = molecular target: T4, Interstitial collagenase (Homo sapiens, UniProt P03956); experiment: Inhibition of human MMP1
T4 sequence (P03956 whole entry): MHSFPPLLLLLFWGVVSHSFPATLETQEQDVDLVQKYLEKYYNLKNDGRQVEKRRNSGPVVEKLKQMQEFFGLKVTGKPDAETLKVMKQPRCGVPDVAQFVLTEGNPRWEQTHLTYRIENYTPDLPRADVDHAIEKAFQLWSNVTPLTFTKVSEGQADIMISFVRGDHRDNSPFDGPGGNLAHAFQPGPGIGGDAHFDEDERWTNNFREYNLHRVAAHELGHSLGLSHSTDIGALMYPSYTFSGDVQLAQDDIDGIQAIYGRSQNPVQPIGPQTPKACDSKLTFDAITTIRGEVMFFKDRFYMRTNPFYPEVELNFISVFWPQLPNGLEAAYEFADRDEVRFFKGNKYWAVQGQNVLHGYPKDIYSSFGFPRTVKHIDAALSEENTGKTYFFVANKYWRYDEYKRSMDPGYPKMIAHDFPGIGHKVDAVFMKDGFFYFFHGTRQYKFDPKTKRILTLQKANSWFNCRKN

[20] = Inhibition of sheep MMP12; design: species or system Ovis aries
[21] = molecular target: Macrophage metalloelastase (Mus musculus, UniProt P34960); experiment: Inhibition of mouse recombinant MMP12
[22] = molecular target: Collagenase 3 (Homo sapiens, UniProt P45452); experiment: Inhibition of human recombinant MMP13 expressed in Escherichia coli
[23] = Volume of distribution at steady state in C57BL/6 mouse at 2 mg/kg, iv; assay type: ADME, organism-based; design: dose 2 mg/kg, route intravenous; conditions: in vivo, read-out: Vdss
[24] = Clearance in C57BL/6 mouse at 2 mg/kg, iv; assay type: ADME, organism-based; design: dose 2 mg/kg, route intravenous; conditions: in vivo
[25] = Half life in C57BL/6 mouse at 30 mg/kg, po; assay type: ADME, organism-based; design: dose 30 mg/kg, route oral; conditions: in vivo
[26] = molecular target: Macrophage metalloelastase (Rattus norvegicus, UniProt Q63341)
Sequence of Macrophage metalloelastase (Rattus norvegicus, UniProt Q63341) (Q63341 whole entry): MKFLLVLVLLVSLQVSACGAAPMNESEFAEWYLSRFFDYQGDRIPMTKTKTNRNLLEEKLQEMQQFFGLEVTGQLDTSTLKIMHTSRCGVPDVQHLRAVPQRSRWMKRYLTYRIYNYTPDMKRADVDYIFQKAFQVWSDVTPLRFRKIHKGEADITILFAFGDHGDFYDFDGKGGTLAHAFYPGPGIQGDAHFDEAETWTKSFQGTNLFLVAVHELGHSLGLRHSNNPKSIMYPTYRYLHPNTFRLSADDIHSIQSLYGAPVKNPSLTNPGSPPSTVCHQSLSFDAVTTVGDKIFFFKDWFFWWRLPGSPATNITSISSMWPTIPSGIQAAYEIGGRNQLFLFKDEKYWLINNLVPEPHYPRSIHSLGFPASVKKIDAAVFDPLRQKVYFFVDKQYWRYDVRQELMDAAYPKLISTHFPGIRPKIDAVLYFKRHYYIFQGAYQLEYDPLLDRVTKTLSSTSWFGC

Sequence of Matrix metalloproteinase-9 (P14780 whole entry): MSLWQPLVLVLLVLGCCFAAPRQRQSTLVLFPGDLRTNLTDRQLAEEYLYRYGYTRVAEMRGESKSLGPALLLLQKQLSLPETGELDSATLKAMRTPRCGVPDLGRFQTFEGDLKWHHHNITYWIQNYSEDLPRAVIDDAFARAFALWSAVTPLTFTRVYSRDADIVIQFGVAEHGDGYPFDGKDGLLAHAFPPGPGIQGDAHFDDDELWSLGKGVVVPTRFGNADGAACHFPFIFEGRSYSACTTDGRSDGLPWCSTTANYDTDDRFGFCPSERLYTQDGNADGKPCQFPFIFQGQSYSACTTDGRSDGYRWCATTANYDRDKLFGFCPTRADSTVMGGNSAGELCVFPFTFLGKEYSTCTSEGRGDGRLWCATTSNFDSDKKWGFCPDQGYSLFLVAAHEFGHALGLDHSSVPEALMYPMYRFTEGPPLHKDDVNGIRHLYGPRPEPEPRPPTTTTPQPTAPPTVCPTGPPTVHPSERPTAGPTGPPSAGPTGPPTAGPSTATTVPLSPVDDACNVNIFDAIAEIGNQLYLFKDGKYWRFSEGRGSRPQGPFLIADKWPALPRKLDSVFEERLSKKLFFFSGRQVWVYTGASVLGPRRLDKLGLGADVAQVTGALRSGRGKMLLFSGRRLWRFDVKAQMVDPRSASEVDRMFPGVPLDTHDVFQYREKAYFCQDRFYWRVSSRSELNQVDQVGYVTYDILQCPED
Sequence of Stromelysin-1 (P08254 whole entry): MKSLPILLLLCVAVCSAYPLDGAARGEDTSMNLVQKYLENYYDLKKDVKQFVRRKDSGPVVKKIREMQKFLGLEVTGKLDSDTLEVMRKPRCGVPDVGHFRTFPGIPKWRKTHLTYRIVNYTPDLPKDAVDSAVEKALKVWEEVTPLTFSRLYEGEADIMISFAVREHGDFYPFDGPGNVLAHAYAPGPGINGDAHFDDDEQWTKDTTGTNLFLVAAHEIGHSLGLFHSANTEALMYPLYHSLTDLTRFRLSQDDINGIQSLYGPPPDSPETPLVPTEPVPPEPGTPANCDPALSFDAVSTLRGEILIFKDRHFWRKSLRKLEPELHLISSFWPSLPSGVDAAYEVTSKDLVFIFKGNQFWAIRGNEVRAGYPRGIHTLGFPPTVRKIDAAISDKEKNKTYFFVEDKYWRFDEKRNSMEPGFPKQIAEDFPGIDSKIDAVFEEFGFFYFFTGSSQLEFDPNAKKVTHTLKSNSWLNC
Sequence of Macrophage metalloelastase (Mus musculus, UniProt P34960) (P34960 whole entry): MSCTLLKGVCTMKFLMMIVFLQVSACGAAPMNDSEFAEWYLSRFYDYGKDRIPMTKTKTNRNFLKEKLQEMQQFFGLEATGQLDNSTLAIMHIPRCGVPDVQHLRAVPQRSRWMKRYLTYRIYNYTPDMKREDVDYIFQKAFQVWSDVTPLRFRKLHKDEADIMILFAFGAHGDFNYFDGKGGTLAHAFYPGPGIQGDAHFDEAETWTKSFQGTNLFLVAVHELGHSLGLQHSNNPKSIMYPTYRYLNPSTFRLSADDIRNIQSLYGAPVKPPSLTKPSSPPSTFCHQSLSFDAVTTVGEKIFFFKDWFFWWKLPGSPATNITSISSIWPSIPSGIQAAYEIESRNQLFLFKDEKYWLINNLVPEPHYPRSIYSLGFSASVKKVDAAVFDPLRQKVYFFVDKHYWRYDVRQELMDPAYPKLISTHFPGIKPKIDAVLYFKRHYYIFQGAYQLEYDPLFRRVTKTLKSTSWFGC
Sequence of Voltage-gated inwardly rectifying potassium channel KCNH2 (Q12809 whole entry): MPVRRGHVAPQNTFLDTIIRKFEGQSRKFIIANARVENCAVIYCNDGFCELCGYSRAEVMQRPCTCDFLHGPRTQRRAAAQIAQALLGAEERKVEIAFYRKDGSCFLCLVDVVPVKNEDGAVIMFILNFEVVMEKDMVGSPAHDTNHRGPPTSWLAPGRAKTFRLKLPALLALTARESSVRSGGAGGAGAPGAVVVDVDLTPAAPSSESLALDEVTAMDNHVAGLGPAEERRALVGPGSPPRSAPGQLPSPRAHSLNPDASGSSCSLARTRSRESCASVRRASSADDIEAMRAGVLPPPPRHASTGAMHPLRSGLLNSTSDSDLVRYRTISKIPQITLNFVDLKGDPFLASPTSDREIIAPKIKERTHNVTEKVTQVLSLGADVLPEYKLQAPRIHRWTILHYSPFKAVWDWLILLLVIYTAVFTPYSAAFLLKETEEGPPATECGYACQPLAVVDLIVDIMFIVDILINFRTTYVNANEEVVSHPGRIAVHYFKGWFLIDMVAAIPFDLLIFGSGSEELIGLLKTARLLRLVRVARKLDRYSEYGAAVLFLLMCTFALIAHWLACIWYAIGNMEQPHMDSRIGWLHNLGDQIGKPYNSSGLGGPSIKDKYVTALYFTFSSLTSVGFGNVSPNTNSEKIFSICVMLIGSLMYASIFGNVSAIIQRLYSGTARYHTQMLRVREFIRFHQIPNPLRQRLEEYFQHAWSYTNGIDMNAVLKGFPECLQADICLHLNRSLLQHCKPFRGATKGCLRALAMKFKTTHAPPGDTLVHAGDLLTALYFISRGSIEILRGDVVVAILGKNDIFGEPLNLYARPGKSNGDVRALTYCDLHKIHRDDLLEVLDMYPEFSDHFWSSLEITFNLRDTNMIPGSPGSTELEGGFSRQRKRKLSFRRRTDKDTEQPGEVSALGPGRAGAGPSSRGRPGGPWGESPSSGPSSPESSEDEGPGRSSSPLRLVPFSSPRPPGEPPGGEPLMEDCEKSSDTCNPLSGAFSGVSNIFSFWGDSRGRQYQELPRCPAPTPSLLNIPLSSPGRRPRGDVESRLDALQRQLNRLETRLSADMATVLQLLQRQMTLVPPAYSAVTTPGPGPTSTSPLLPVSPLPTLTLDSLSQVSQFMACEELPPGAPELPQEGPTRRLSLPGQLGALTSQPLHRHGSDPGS

## COC(=O)Nc1ccc2oc3cc(S(=O)(=O)N[C@H](C(=O)O)C(C)C)ccc3c2c1
[1]
  Cmax: 3080 ng/mL
[2]
  AUC: 7480 ng·h/mL
[3]
  bioavailability: 27%
[4]
  IC50: 351 nM
[5]
  IC50: > 22000 nM
[6]
  IC50: 1300 nM
[7]
  IC50: > 5000 nM
[8]
  IC50: > 10000 nM
[9]
  IC50: 1100 nM
[10]
  half-life: > 1 h
[11]
  half-life: > 1 h
[12]
  half-life: > 1 h
[13]
  half-life: > 1 h
[14]
  Activity: Not Active
[15]
  half-life: > 1 h
[16]
  inhibition in vivo at 30 mg/kg: > 70%
[17]
  minimal effective dose: 5 mg/kg
[18]
  inhibition in vivo at 30 mg/kg: > 50%
[19]
  IC50: > 6000 nM
[20]
  IC50: 22.3 nM
[21]
  IC50: 160 nM
[22]
  IC50: 120 nM
[23]
  Vd: 1.9 L/kg
[24]
  clearance: 17.2 mL/min/kg
[25]
  half-life: 3 h
[26]
  IC50: 320 nM
